Holding throughout (test): growth of human tumour cells (NCI), 48 h
Test [1] concerns 786-0.
Test [2] concerns A549.
Test [3] relates to COLO 205.
Test [4] relates to HCC 2998.
The subject of test [5] is HCT-15.
In test [6] the test system is HOP-92.
Test [7] relates to Hs-578T.
In test [8] the test system is M14.
Test [9] has as its system MCF7.
Test [10] relates to Malme-3M.
For test [11], the system named is NCI-H226.
Test [12] relates to NCI-H460.
The test system of test [13] is OVCAR-5.
In test [14] the test system is SF-268.
The subject of test [15] is SF-295.
Test [16] has as its system SK-MEL-2.
For test [17], the system named is SNB-75.
The subject of test [18] is SR.
Test [19] relates to UACC-62.
Test [20] relates to UO-31.

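Values below derive from 48-hour exposures of cells grown in 96-well plates, with endpoints linearly interpolated between the two concentrations bracketing the appropriate inhibition level. GI50 is the concentration that inhibits growth by half.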 The source made the active and inactive calls. Rule as the data show it: active = GI50 up to about 1.1 µM and inactive = higher.

On to `O=C(ON=C1c2ccccc2C(Br)C(Br)c2ccccc21)c1ccccc1` (stereo not drawn), for which the GI50 in test [1] is 9.62 µM (inactive); in test [2], 20.6 µM (inactive); in test [3], 15.8 µM (inactive); in test [4], 21.8 µM (inactive); in [5] it was 17.6 µM; in test [6], 1.17 µM (inactive). Further, the GI50 is 21.5 µM (inactive) in test [7]; 17.3 µM (inactive) in test [8]; 14.9 µM (inactive) in test [9]; 20.7 µM (inactive) in test [10]; 18 µM (inactive) in test [11]; 13.4 µM (inactive) in [12]. Moreover, the GI50 is 18.8 µM (inactive) in test [13]; 20.7 µM (inactive) in test [14]; 18.5 µM (inactive) in test [15]; 30.2 µM (inactive) in test [16]; 21.6 µM (inactive) in test [17]; 3.09 µM (inactive) in [18]. In addition, the GI50 in test [19] was 16.7 µM (inactive); in [20], 3.79 µM (inactive).

As for `CC(O)(/C=C/c1ccccc1)P(=O)(O)c1ccccc1` (stereo not drawn), the GI50 in test [1] was > 100 µM (inactive); in test [2], > 100 µM (inactive); in [3], > 100 µM (inactive); in [4], 47.2 µM (inactive); in test [5], more than 100 µM; in test [6] it was > 100 µM (inactive). In addition, the GI50 in [7], in [8], in [9], in test [10], in [11] and in test [12] was > 100 µM (inactive) in each case. Further, the GI50 was > 100 µM (inactive) in test [13]; > 100 µM (inactive) in [14]; > 100 µM (inactive) in test [15]; > 100 µM (inactive) in test [16]; 37.9 µM (inactive) in [17]; > 100 µM (inactive) in test [18]. For the same compound, the GI50 in test [19] was > 100 µM (inactive).

With `Cc1ccc(S(=O)(=O)Oc2cc(S(=O)(=O)O)cc3cc(S(=O)(=O)O)cc(N)c23)cc1`, the GI50 in test [1] is > 100 µM (inactive); in test [2] it was > 100 µM (inactive); in [3], > 100 µM (inactive); in test [4] it was > 100 µM (inactive); in [5], more than 100 µM; in test [6], 22 µM (inactive). In addition, the GI50 in test [7], in test [8], in test [9], in [10], in test [11] and in test [12] was > 100 µM (inactive) throughout. The GI50 in test [13], in test [14], in test [15], in test [16], in test [17] and in [18] was > 100 µM (inactive) throughout. Also, the figures for the GI50 in test [19] and in test [20] were > 100 µM (inactive) and 41.1 µM (inactive), respectively.

With `Cc1ccc(/N=C2\C(=N/c3ccc(C)cc3)N(c3ccc(C)cc3)C(=S)N2C(=O)c2ccccc2)cc1`, the GI50 in [1] was > 100 µM (inactive); in test [2], > 100 µM (inactive); in [3], > 100 µM (inactive); in test [4] it was > 100 µM (inactive); in test [5] it was more than 100 µM; in test [6], > 100 µM (inactive). The GI50 in test [7], in test [8], in [9], in test [10], in test [11] and in test [12] was > 100 µM (inactive) throughout. Moreover, the GI50 was > 100 µM (inactive) in [13]; > 100 µM (inactive) in [14]; 18.3 µM (inactive) in test [15]; > 100 µM (inactive) in [16]; 17.5 µM (inactive) in [17]; > 100 µM (inactive) in test [18]. In addition, the GI50 in [19] and in test [20] was > 100 µM (inactive) throughout.

On to `NCc1ccc(O)c(O)c1O`, for which the GI50 is 15.9 µM (inactive) in test [1]; 27.6 µM (inactive) in [2]; 19.2 µM (inactive) in [3]; > 66.4 µM (inactive) in [4]; 24.7 µM in test [5]; > 58.6 µM (inactive) in test [6]. In addition, the GI50 in test [7] is 10.7 µM (inactive); in [8], 14.3 µM (inactive); in [9], 16.8 µM (inactive); in test [10], 71.1 µM (inactive); in [11], > 46.8 µM (inactive); in test [12] it was 18.5 µM (inactive). Further, the GI50 in test [13] is 17.3 µM (inactive); in [14] it was 28.3 µM (inactive); in [15], 25.7 µM (inactive); in test [16] it was 22.5 µM (inactive); in test [17] it was 26.4 µM (inactive); in test [18] it was 30.1 µM (inactive). The GI50 in test [19] was 27.1 µM (inactive); in test [20] it was 59.7 µM (inactive).

With `CCOC1SC(SC)=NN1C(=O)C(OC(C)=O)C(OC(C)=O)C(OC(C)=O)C(OC(C)=O)C(=O)N1N=C(SC)SC1OCC` (stereo not drawn), the GI50 was 62.1 µM (inactive) in test [1]; > 100 µM (inactive) in test [2]; > 100 µM (inactive) in test [3]; > 100 µM (inactive) in test [4]; more than 100 µM in test [5]; 38.2 µM (inactive) in [6]. Moreover, the GI50 in test [7] is 35.2 µM (inactive); in test [8] it was > 100 µM (inactive); in [9] it was > 100 µM (inactive); in test [10] it was > 100 µM (inactive); in [11] it was > 100 µM (inactive); in [12], > 100 µM (inactive). For the same compound, the GI50 in test [13] was > 100 µM (inactive); in [14], > 100 µM (inactive); in [15] it was > 100 µM (inactive); in test [16] it was > 100 µM (inactive); in test [17] it was 48.3 µM (inactive); in test [18] it was > 100 µM (inactive). In addition, the GI50 in test [19] and in [20] was > 100 µM (inactive) each time.

For the compound `CC1(C)CCCCCCCCCC(C)(CCCO)C1=O` (stereo not drawn), the GI50 was 16.9 µM (inactive) in [1]; 15.5 µM (inactive) in [2]; 16.3 µM (inactive) in [3]; 17.7 µM (inactive) in [4]; 17.8 µM in [5]; 14.5 µM (inactive) in [6]. Moreover, the GI50 was 20.6 µM (inactive) in test [7]; 14.3 µM (inactive) in test [8]; 17.1 µM (inactive) in test [9]; 16.8 µM (inactive) in [10]; 16.1 µM (inactive) in test [11]; 18.4 µM (inactive) in test [12]. For the same compound, the GI50 was 15.5 µM (inactive) in test [13]; 18.2 µM (inactive) in [14]; 18.6 µM (inactive) in test [15]; 15 µM (inactive) in [16]; 17.9 µM (inactive) in [17]; 35.2 µM (inactive) in [18]. For the same compound, the GI50 in [19] was 18.4 µM (inactive); in [20], 12 µM (inactive).

Take `Cc1cccc2c1C/C(=C\c1cccc(C)c1C(=O)O)C2=O`: the GI50 was > 100 µM (inactive) in test [1]; > 100 µM (inactive) in test [2]; 82.6 µM (inactive) in test [3]; > 100 µM (inactive) in test [4]; more than 100 µM in [5]; > 100 µM (inactive) in test [6]. Moreover, the GI50 in test [7], in test [8], in test [9], in test [10], in test [11] and in test [12] was > 100 µM (inactive) throughout. The GI50 in test [13] is > 100 µM (inactive); in test [14] it was > 100 µM (inactive); in test [15], > 100 µM (inactive); in test [16], > 100 µM (inactive); in [17], > 100 µM (inactive); in test [18], 54.7 µM (inactive). Besides, the GI50 in test [19] and in test [20] was > 100 µM (inactive) throughout.

As for `COc1ccc2c(=O)c3cc([N+](=O)[O-])ccc3n(C)c2c1`, the GI50 is > 100 µM (inactive) in test [1]; > 100 µM (inactive) in test [2]; > 100 µM (inactive) in [3]; > 100 µM (inactive) in [4]; more than 100 µM in [5]; > 100 µM (inactive) in test [6]. In addition, the GI50 in test [7], in test [8], in [9], in test [10], in test [11] and in test [12] was > 100 µM (inactive) each time. The GI50 in [13], in [14], in [15], in test [16], in test [17] and in test [18] was > 100 µM (inactive) in each case. For the same compound, the GI50 in [19] and in [20] was > 100 µM (inactive) each time.

In the case of `C(=N\N=C1NCCN1)/c1ccc2ccccc2c1`, the GI50 is 12.8 µM (inactive) in test [1]; 14.4 µM (inactive) in test [2]; 6.84 µM (inactive) in test [3]; 12.7 µM (inactive) in test [4]; 18.2 µM in test [5]; 0.174 µM (active) in test [6]. In addition, the GI50 in [7] is 19.5 µM (inactive); in [9], 15.3 µM (inactive); in [10] it was 14.2 µM (inactive); in test [11], 21 µM (inactive); in test [12], 14.4 µM (inactive); in test [13], 18.7 µM (inactive). The GI50 in test [14] was 17.9 µM (inactive); in test [15], 14.9 µM (inactive); in test [16], 19.5 µM (inactive); in test [17] it was 29.5 µM (inactive); in test [18], 12.9 µM (inactive); in test [19], 14.4 µM (inactive). In test [20], the GI50 is 3.67 µM (inactive).
